Experimental findings from ChEMBL document CHEMBL4715829, “Heterodimeric Rifampicin-Tobramycin conjugates break intrinsic resistance of Pseudomonas aeruginosa to doxycycline and chloramphenicol in vitro and in a Galleria mellonella in vivo model” (Eur J Med Chem, 2019) are described below.

One may read the MIC as the least concentration at which growth counts as inhibited.

The source made the active and inactive calls. No cut-off for these calls is given here.

The subject of test [1] is Pseudomonas aeruginosa. Kind of test: Antibacterial activity against Pseudomonas aeruginosa 91433 assessed as fractional inhibitory concentration in presence of chloramphenicol incubated for 18 hrs by broth microdilution assay. Format: functional. For orientation: Dilution methods test growth across graded concentrations, often in twofold steps.
Test [2] concerns Pseudomonas aeruginosa. Kind of test: Antibacterial activity against Pseudomonas aeruginosa 100036 assessed as reduction in bacterial growth by measuring doxycycline MIC at 8 ug/ml incubated for 18 hrs in presence of doxycycline by broth microdilution assay (reference value: 64 ug/ml). The settings on record: dose 8 µg/ml. Format: functional.
Test [3] deals with Pseudomonas aeruginosa. Kind of test: Antibacterial activity against Pseudomonas aeruginosa 264-101354 assessed as reduction in bacterial growth by measuring doxycycline MIC at 8 ug/ml incubated for 18 hrs in presence of doxycycline by broth microdilution assay (reference value: 64 ug/ml). Type of test: functional. The settings on record: dose 8 µg/ml.
The subject of test [4] is Acinetobacter baumannii. Kind of test: Potentiation of chloramphenicol-induced antibacterial activity against Acinetobacter baumannii ATCC 17978 assessed as fold change in chloramphenicol MIC at 9.8 uM incubated for 18 hrs in presence of chloramphenicol by broth microdilution assay relative to control. Type of test: functional.
The test system of test [5] is Pseudomonas aeruginosa. Kind of test: Potentiation of doxycycline-induced antibacterial activity against Pseudomonas aeruginosa 101243 assessed as fold change in doxycycline MIC at 9.8 uM incubated for 18 hrs in presence of doxycycline by broth microdilution assay relative to control. Type of test: functional.
The test system of test [6] is Pseudomonas aeruginosa. Kind of test: Antibacterial activity against Pseudomonas aeruginosa 262-101856 assessed as potentiation of chloramphenicol-induced antibacterial activity by measuring chloramphenicol MIC at 9.8 uM incubated for 18 hrs in presence of chloramphenicol by broth microdilution assay (reference value: 2048 ug/ml). Type of test: functional.
Test [7] deals with Pseudomonas aeruginosa. Kind of test: Antibacterial activity against Pseudomonas aeruginosa 260-97103 infected in Galleria mellonella larvae assessed as survival of larvae at 100 mg/kg treated at 3 hrs post-infection in presence of doxycycline and measured after 18 hrs relative to control. Type of test: functional.
For test [8], the system named is Pseudomonas aeruginosa. Kind of test: Antibacterial activity against Pseudomonas aeruginosa 260-97103 assessed as potentiation of chloramphenicol-induced antibacterial activity by measuring chloramphenicol MIC at 9.8 uM incubated for 18 hrs in presence of chloramphenicol by broth microdilution assay (reference value: 128 ug/ml). Type of test: functional.
The test system of test [9] is Pseudomonas aeruginosa. Kind of test: Antibacterial activity against Pseudomonas aeruginosa 91433 assessed as fractional inhibitory concentration index incubated for 18 hrs in presence of minocycline by broth microdilution assay. Type of test: functional.
The test system of test [10] is Pseudomonas aeruginosa. Kind of test: Potentiation of doxycycline-induced antibacterial activity against Pseudomonas aeruginosa 101885 assessed as fold change in doxycycline MIC at 9.8 uM incubated for 18 hrs in presence of doxycycline by broth microdilution assay relative to control. Format: functional.
The subject of test [11] is Pseudomonas aeruginosa. Kind of test: Potentiation of chloramphenicol-induced antibacterial activity against Pseudomonas aeruginosa 101885 assessed as fold change in chloramphenicol MIC at 9.8 uM incubated for 18 hrs in presence of chloramphenicol by broth microdilution assay relative to control. Format: functional.
Test [12] has as its system Pseudomonas aeruginosa. Kind of test: Potentiation of doxycycline-induced antibacterial activity against Pseudomonas aeruginosa 262-101856 assessed as fold change in doxycycline MIC at 9.8 uM incubated for 18 hrs in presence of doxycycline by broth microdilution assay relative to control. Format: functional.
For test [13], the system named is Pseudomonas aeruginosa. Kind of test: Potentiation of doxycycline-induced antibacterial activity against Pseudomonas aeruginosa 91433 assessed as fold change in doxycycline MIC at 9.8 uM incubated for 18 hrs in presence of doxycycline by broth microdilution assay relative to control. Format: functional.
Test [14] relates to Pseudomonas aeruginosa. Kind of test: Antibacterial activity against Pseudomonas aeruginosa 260-97103 infected in Galleria mellonella larvae assessed as survival of larvae treated at 3 hrs post-infection in presence of doxycycline and measured every 6 hrs for 36 hrs. Format: functional, organism-based. The settings on record: dose 75-100 mg/kg.
The subject of test [15] is Pseudomonas aeruginosa. Kind of test: Antibacterial activity against Pseudomonas aeruginosa 91433 assessed as fractional inhibitory concentration incubated for 18 hrs in presence of minocycline by broth microdilution assay. Format: functional.
The test system of test [16] is Pseudomonas aeruginosa. Kind of test: Antibacterial activity against Pseudomonas aeruginosa 101885 assessed as fractional inhibitory concentration incubated for 18 hrs in presence of minocycline by broth microdilution assay. Format: functional.
Test [17] has as its system Pseudomonas aeruginosa. Kind of test: Antibacterial activity against Pseudomonas aeruginosa 101885 assessed as fractional inhibitory concentration incubated for 18 hrs in presence of rifampicin by broth microdilution assay. Type of test: functional.
The test system of test [18] is Pseudomonas aeruginosa. Kind of test: Potentiation of chloramphenicol-induced antibacterial activity against Pseudomonas aeruginosa 262-101856 assessed as fold change in chloramphenicol MIC at 9.8 uM incubated for 18 hrs in presence of chloramphenicol by broth microdilution assay relative to control. Type of test: functional.
For test [19], the system named is Pseudomonas aeruginosa. Kind of test: Antibacterial activity against Pseudomonas aeruginosa 264-101354 assessed as fractional inhibitory concentration incubated for 18 hrs in presence of tigecycline by broth microdilution assay. Format: functional.
In test [20] the test system is Pseudomonas aeruginosa. Kind of test: Potentiation of chloramphenicol-induced antibacterial activity against Pseudomonas aeruginosa 101243 assessed as fold change in chloramphenicol MIC at 9.8 uM incubated for 18 hrs in presence of chloramphenicol by broth microdilution assay relative to control. Type of test: functional.
Test [21] concerns Pseudomonas aeruginosa. Kind of test: Antibacterial activity against Pseudomonas aeruginosa 101885 assessed as fractional inhibitory concentration index incubated for 18 hrs in presence of rifampicin by broth microdilution assay. Type of test: functional.
In test [22] the test system is Pseudomonas aeruginosa. Kind of test: Antibacterial activity against Pseudomonas aeruginosa 264-101354 assessed as fractional inhibitory concentration incubated for 18 hrs in presence of rifampicin by broth microdilution assay. Type of test: functional.
The subject of test [23] is Pseudomonas aeruginosa. Kind of test: Potentiation of doxycycycline-induced bactericidal activity against Pseudomonas aeruginosa PAO1 assessed as reduction in bacterial colonies at 4.9 to 9.8 microM incubated for upto 24 hrs in LB medium in presence of doxycycline followed by plating on agar plate and measured after 20 hrs by time-kill assay. Format: functional, organism-based. The settings on record: dose 4.9-9.8 µM, time hrs <=44.

Test [24] has as its system Pseudomonas aeruginosa. Kind of test: Antibacterial activity against Pseudomonas aeruginosa 260-97103 assessed as fractional inhibitory concentration index incubated for 18 hrs in presence of minocycline by broth microdilution assay. Format: functional.
For test [25], the system named is Pseudomonas aeruginosa. Kind of test: Antibacterial activity against Pseudomonas aeruginosa 101243 assessed as potentiation of chloramphenicol-induced antibacterial activity by measuring chloramphenicol MIC at 7.6 uM incubated for 18 hrs in presence of chloramphenicol by broth microdilution assay (reference value: 1 ug/ml). Type of test: functional.
In the next test the test system is Klebsiella pneumoniae. Kind of test: Potentiation of chloramphenicol-induced antibacterial activity against Klebsiella pneumoniae ATCC 16381 assessed as fold change in chloramphenicol MIC at 7.6 uM incubated for 18 hrs in presence of chloramphenicol by broth microdilution assay relative to control. Format: functional.
Test [26] relates to Acinetobacter baumannii. Kind of test: Potentiation of chloramphenicol-induced antibacterial activity against Acinetobacter baumannii ATCC 17978 assessed as fold change in chloramphenicol MIC at 7.6 uM incubated for 18 hrs in presence of chloramphenicol by broth microdilution assay relative to control. Type of test: functional.
Test [27] deals with Pseudomonas aeruginosa. Kind of test: Antibacterial activity against Pseudomonas aeruginosa 264-101354 assessed as potentiation of chloramphenicol-induced antibacterial activity by measuring chloramphenicol MIC at 7.6 uM incubated for 18 hrs in presence of chloramphenicol by broth microdilution assay (reference value: 4096 ug/ml). Format: functional.
In test [28] the test system is Pseudomonas aeruginosa. Kind of test: Antibacterial activity against Pseudomonas aeruginosa 100036 assessed as potentiation of chloramphenicol-induced antibacterial activity by measuring chloramphenicol MIC at 7.6 uM incubated for 18 hrs in presence of chloramphenicol by broth microdilution assay (reference value: 1024 ug/ml). Format: functional.
For test [29], the system named is Pseudomonas aeruginosa. Kind of test: Potentiation of doxycycline-induced antibacterial activity against Pseudomonas aeruginosa 262-101856 assessed as fold change in doxycycline MIC at 7.6 uM incubated for 18 hrs in presence of doxycycline by broth microdilution assay relative to control. Type of test: functional.

As for `NC[C@H]1O[C@H](O[C@H]2[C@H](O)[C@@H](O[C@H]3O[C@H](CO)[C@@H](O)[C@H](N)[C@H]3O)[C@H](N)C[C@@H]2N)[C@H](N)C[C@@H]1O` [TOBRAMYCIN], the FIC in the test with Pseudomonas aeruginosa [1] was 0.5. The MIC in the test with Pseudomonas aeruginosa [2] and in the test with Pseudomonas aeruginosa [3] was 64 µg/mL in each case.
On to `CO[C@H]1/C=C/O[C@@]2(C)Oc3c(C)c(O)c4c(O)c(c(/C=N/N5CCN(Cc6cn(CCCCCCO[C@@H]7[C@@H](O[C@H]8O[C@H](CO)[C@@H](O)[C@H](N)[C@H]8O)[C@H](N)C[C@H](N)[C@H]7O[C@H]7O[C@H](CN)[C@@H](O)C[C@H]7N)nn6)CC5)c(O)c4c3C2=O)NC(=O)/C(C)=C\C=C\[C@H](C)[C@H](O)[C@@H](C)[C@@H](O)[C@@H](C)[C@H](OC(C)=O)[C@@H]1C.Cl.Cl.Cl.Cl.Cl`, for which the “fold change (FC)” value was found to be 0 in the test with Acinetobacter baumannii [4]; 4 in the test on Pseudomonas aeruginosa [5]; 4 in the test on Pseudomonas aeruginosa [10]; 4 with Pseudomonas aeruginosa [11]; 4 in the test with Pseudomonas aeruginosa [12]; 4 in the test with Pseudomonas aeruginosa [13]. The “fold change (FC)” value with Pseudomonas aeruginosa [18] and in the test on Pseudomonas aeruginosa [20] was 4 each time. In addition, the values for the MIC with Pseudomonas aeruginosa [6] and in the test on Pseudomonas aeruginosa [8] were 128 µg/mL and 2 µg/mL, respectively. Further, the survival at 100 mg/kg with Pseudomonas aeruginosa [7] worked out at 87%. In addition, the “fractional inhibitory concentration index (FICI)” value with Pseudomonas aeruginosa [9] was below 0.25; in the test with Pseudomonas aeruginosa [21], 0.08; in the test with Pseudomonas aeruginosa [24], below 0.13. Also, the Activity result in the test on Pseudomonas aeruginosa [14] was “Dose-dependent effect”. Also, the FIC in the test on Pseudomonas aeruginosa [15] was below 0.125; in the test with Pseudomonas aeruginosa [16] it was 0.063; in the test with Pseudomonas aeruginosa [17], 0.063; in the test on Pseudomonas aeruginosa [19], 0.063; with Pseudomonas aeruginosa [22], 0.016. For the same compound, the result in the test with Pseudomonas aeruginosa [23] was Active.
For `CO[C@H]1/C=C/O[C@@]2(C)Oc3c(C)c(O)c4c(O)c(c(/C=N/N5CCN(Cc6cn(CCCCCCCCCCCCO[C@@H]7[C@@H](O[C@H]8O[C@H](CO)[C@@H](O)[C@H](N)[C@H]8O)[C@H](N)C[C@H](N)[C@H]7O[C@H]7O[C@H](CN)[C@@H](O)C[C@H]7N)nn6)CC5)c(O)c4c3C2=O)NC(=O)/C(C)=C\C=C\[C@H](C)[C@H](O)[C@@H](C)[C@@H](O)[C@@H](C)[C@H](OC(C)=O)[C@@H]1C.O=C(O)C(F)(F)F.O=C(O)C(F)(F)F.O=C(O)C(F)(F)F.O=C(O)C(F)(F)F.O=C(O)C(F)(F)F`, the MIC worked out at 0.0625 µg/mL with Pseudomonas aeruginosa [25], 128 µg/mL with Pseudomonas aeruginosa [27] and 4 µg/mL in the test on Pseudomonas aeruginosa [28]. In addition, the “fold change (FC)” value in the test with Klebsiella pneumoniae is given as 0; in the test on Acinetobacter baumannii [26], 0; with Pseudomonas aeruginosa [29] it was 4.
